Target: T1, EUGT11 (Oryza sativa, UniProt Q0DPB7)
T1 construct: gene Os03g0702000
T1 sequence (Q0DPB7 1-462): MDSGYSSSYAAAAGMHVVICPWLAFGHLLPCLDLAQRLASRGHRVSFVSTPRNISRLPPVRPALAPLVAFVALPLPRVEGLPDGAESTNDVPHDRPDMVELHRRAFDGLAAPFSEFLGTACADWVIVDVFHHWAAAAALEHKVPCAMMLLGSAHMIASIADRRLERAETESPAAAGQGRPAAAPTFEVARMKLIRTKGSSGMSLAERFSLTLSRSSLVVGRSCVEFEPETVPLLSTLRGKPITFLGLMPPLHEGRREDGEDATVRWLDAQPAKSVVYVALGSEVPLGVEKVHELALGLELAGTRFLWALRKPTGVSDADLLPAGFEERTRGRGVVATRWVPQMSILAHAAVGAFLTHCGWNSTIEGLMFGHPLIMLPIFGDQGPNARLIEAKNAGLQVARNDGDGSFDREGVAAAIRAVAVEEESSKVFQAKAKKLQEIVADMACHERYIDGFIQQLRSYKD
Assay: cell-free synthesised enzyme, HPLC product detection
Settings: 2 mM UDP-glucose, 2 mM Reb A, 50 mM PBS pH 8.0, 35 °C, 12 h; positive control

Compound: C=C1C[C@@]23CC[C@H]4[C@@](C)(CCC[C@@]4(C)C(=O)O[C@@H]4O[C@H](CO)[C@@H](O)[C@H](O)[C@H]4O)[C@@H]2CC[C@]1(O[C@@H]1O[C@H](CO)[C@@H](O)[C@H](O[C@@H]2O[C@H](CO)[C@@H](O)[C@H](O)[C@H]2O)[C@H]1O[C@@H]1O[C@H](CO)[C@@H](O)[C@H](O)[C@H]1O)C3 [Reb A]
- cell-free synthesised enzyme, HPLC product detection: the glycosylated product of Reb A catalyzed by EUGT11 had the same HPLC retention time

From paper PMC9092651, “Improving Thermostability and Catalytic Activity of Glycosyltransferase From Panax ginseng by Semi-Rational Design for Rebaudioside D Synthesis” (Frontiers in Bioengineering and Biotechnology, 2022)
